Target: T1, Hyaluronidase-1 (Homo sapiens, UniProt Q12794)
T1 sequence (Q12794 whole entry): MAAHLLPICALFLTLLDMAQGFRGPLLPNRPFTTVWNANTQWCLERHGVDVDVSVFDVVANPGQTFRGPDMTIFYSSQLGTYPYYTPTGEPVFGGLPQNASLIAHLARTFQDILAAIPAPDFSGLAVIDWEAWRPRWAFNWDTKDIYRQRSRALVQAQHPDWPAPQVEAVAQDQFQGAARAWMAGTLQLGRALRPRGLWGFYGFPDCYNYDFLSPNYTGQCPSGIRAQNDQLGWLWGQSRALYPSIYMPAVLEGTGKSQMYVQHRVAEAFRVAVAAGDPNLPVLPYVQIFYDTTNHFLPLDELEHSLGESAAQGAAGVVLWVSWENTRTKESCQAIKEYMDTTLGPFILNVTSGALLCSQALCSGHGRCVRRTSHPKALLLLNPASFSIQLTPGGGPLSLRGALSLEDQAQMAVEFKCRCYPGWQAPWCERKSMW
Assay: Inhibition of hyaluronidase

| SMILES | IC50 [µM] |
| --- | --- |
| O=C(O)/C=C/c1ccc(O)c(O)c1 [CAFFEIC ACID] | > 2000 |
| O=C(/C=C/c1ccc(O)cc1)O[C@H](C(=O)O)[C@](O)(Cc1ccc(O)cc1)C(=O)O [CIMICIFUGIC ACID K] | 255 |
| COc1ccc(/C=C/C(=O)O[C@H](C(=O)O)[C@](O)(Cc2ccc(O)cc2)C(=O)O)cc1OC [CIMICIFUGIC ACID L] | 102 |
| O=C(/C=C/c1ccc(O)c(O)c1)O[C@H](C(=O)O)[C@](O)(Cc1ccccc1)C(=O)O [CIMICIFUGIC ACID M] | 173 |
| COc1ccc(/C=C\C(=O)O[C@H](C(=O)O)[C@](O)(Cc2ccc(O)c(O)c2)C(=O)O)cc1OC [CIMICIFUGIC ACID N] | 120 |
| COc1cc(/C=C/C(=O)O)ccc1O [FERULATE] | > 2000 |
| O=C(/C=C/c1ccc(O)c(O)c1)O[C@H](Cc1ccc(O)c(O)c1)C(=O)O [ROSMARINIC ACID] | 545 |
